Measured values taken from ChEMBL document CHEMBL3860060, “Discovery and Optimization of 1-Phenoxy-2-aminoindanes as Potent, Selective, and Orally Bioavailable Inhibitors of the Na+/H+ Exchanger Type 3 (NHE3)” (J Med Chem, 2016).

Columns and labels:
[1] = Inhibition of cat NHE3 expressed in LAP1 cell assessed as intracellular pH recovery measured for 2 mins by CECF-AM dye based FLIPR assay; conditions: Felis catus, LAP1, 2 min
[2] = target: T1, Sodium/hydrogen exchanger isoform 3 (Sus scrofa, UniProt Q9XSD0); assay: Inhibition of pig NHE3 expressed in LAP1 cell assessed as intracellular pH recovery measured for 2 mins by CECF-AM dye based FLIPR assay
T1 sequence (Q9XSD0 whole entry): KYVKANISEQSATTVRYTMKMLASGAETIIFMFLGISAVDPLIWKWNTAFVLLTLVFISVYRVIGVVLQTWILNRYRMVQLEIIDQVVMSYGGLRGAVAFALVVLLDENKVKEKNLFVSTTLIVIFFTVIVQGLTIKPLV

[3] = target: Sodium/hydrogen exchanger 3 (Rattus norvegicus, UniProt P26433); assay: Inhibition of rat NHE3 expressed in LAP1 cell assessed as intracellular pH recovery measured for 2 mins by CECF-AM dye based FLIPR assay
[4] = target: Sodium/hydrogen exchanger 1 (Homo sapiens, UniProt P19634); assay: Inhibition of human NHE1 expressed in LAP1 cell assessed as intracellular pH recovery measured for 2 mins by CECF-AM dye based FLIPR assay
[5] = target: T2, Sodium/hydrogen exchanger 2 (Homo sapiens, UniProt Q9UBY0); assay: Inhibition of human NHE2 expressed in LAP1 cell assessed as intracellular pH recovery measured for 2 mins by CECF-AM dye based FLIPR assay
T2 sequence (Q9UBY0 whole entry): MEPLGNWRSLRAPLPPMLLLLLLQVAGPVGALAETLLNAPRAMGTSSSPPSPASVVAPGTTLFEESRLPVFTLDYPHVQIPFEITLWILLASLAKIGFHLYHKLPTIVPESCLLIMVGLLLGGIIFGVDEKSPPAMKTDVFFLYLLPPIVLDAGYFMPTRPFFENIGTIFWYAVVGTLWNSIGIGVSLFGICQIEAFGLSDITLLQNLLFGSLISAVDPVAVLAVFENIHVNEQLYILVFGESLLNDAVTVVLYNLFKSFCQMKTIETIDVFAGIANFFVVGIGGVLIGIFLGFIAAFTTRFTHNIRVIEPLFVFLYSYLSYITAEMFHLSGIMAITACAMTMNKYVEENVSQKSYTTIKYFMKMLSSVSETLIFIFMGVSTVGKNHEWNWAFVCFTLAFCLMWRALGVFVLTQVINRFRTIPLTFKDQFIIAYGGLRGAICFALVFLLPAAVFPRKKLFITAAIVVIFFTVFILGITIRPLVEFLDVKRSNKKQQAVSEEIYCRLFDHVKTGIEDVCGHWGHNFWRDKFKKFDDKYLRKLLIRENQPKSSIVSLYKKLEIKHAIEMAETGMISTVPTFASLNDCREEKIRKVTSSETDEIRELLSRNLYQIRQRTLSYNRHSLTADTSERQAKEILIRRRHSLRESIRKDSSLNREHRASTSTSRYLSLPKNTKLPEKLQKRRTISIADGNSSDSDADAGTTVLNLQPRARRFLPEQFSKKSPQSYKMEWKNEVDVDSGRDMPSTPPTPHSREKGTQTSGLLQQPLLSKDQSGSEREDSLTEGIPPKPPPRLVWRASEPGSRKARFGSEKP

[6] = target: T3, Sodium/hydrogen exchanger 5 (Homo sapiens, UniProt Q14940); assay: Inhibition of human NHE5 expressed in LAP1 cell assessed as intracellular pH recovery measured for 2 mins by CECF-AM dye based FLIPR assay
T3 sequence (Q14940 whole entry): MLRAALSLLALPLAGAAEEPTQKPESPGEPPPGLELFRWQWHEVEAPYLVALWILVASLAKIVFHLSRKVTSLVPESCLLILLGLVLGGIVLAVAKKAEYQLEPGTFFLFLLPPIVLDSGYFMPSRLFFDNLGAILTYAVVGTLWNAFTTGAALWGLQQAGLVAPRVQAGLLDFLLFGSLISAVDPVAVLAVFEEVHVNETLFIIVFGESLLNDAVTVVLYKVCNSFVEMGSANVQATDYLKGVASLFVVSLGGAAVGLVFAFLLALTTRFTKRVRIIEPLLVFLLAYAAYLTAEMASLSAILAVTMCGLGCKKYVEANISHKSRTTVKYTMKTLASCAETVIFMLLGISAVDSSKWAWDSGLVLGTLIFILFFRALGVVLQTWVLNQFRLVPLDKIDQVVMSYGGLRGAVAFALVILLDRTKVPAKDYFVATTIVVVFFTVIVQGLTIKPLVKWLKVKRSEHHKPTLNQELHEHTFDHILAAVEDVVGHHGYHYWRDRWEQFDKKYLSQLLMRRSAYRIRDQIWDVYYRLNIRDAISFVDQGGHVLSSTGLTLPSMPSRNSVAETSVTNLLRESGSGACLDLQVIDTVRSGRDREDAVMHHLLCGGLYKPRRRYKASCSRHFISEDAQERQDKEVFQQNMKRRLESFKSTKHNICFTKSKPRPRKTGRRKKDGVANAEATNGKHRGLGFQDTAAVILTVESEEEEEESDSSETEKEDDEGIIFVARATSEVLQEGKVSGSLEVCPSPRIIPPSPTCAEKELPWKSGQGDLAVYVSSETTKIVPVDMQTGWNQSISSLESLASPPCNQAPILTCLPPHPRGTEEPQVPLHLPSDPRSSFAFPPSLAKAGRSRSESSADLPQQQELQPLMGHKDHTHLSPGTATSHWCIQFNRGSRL

[7] = Inhibition of GABA-gated chloride channel (unknown origin); set-up: species or system Homo sapiens
[8] = Inhibition of PDE4 (unknown origin); set-up: species or system Homo sapiens
[9] = Drug metabolism in human hepatic microsomes assessed as compound lability by LC-MS/MS method; type: ADME, Microsome; conditions: liver microsomes, read-out: Drug metabolism
[10] = Drug metabolism in rat hepatic microsomes assessed as compound lability by LC-MS/MS method; type: ADME, Microsome; conditions: liver microsomes, read-out: Drug metabolism
[11] = Drug metabolism in mouse hepatic microsomes assessed as compound lability by LC-MS/MS method; type: ADME, Microsome; conditions: liver microsomes, read-out: Drug metabolism
[12] = Drug metabolism in guinea pig hepatic microsomes assessed as compound lability by LC-MS/MS method; type: ADME, Cavia porcellus, Microsome; conditions: liver microsomes, read-out: Drug metabolism
[13] = Drug metabolism in rabbit hepatic microsomes assessed as compound lability by LC-MS/MS method; type: ADME, Oryctolagus cuniculus, Microsome; conditions: liver microsomes, read-out: Drug metabolism
[14] = Drug metabolism in Landrance pig hepatic microsomes assessed as compound lability by LC-MS/MS method; type: ADME, Sus scrofa, Microsome; conditions: Landrace, liver microsomes, read-out: Drug metabolism
[15] = Drug metabolism in hamster hepatic microsomes assessed as compound lability by LC-MS/MS method; type: ADME, Microsome; conditions: cricetinae, liver microsomes; read-out: Drug metabolism
[16] = Drug metabolism in macaque hepatic microsomes assessed as compound lability by LC-MS/MS method; type: ADME, Macaca mulatta, Microsome; conditions: rhesus monkey, liver microsomes; read-out: Drug metabolism
[17] = Drug metabolism in human hepatic microsomes assessed as compound lability in presence of CYP3A4 inhibitor ketoconazole by LC-MS/MS method; type: ADME, Microsome; conditions: liver microsomes, with ketoconazole (CYP3A4 inhibitor), concentration not stated, read-out: Drug metabolism
[18] = Clearance in human hepatocytes assessed per million cells at 5 uM by LC-MS/MS method; type: ADME, cell-based, Hepatocyte
[19] = Drug metabolism in human hepatic microsomes assessed as glucuronidation by LC-MS/MS method; type: ADME, Liver, Microsome
[20] = Drug metabolism in rat hepatic microsomes assessed as glucuronidation by LC-MS/MS method; type: ADME, Liver, Microsome
[21] = Drug metabolism in dog hepatic microsomes assessed as glucuronidation by LC-MS/MS method; type: ADME, Canis lupus familiaris, Liver, Microsome
[22] = Drug metabolism in mouse hepatic microsomes assessed as glucuronidation by LC-MS/MS method; type: ADME, Liver, Microsome
[23] = Drug metabolism in rabbit hepatic microsomes assessed as glucuronidation by LC-MS/MS method; type: ADME, Oryctolagus cuniculus, Liver, Microsome
[24] = Drug metabolism in guinea pig hepatic microsomes assessed as glucuronidation by LC-MS/MS method; type: ADME, Cavia porcellus, Liver, Microsome
[25] = Drug metabolism in hamster hepatic microsomes assessed as glucuronidation by LC-MS/MS method; type: ADME, Liver, Microsome; conditions: cricetinae
[26] = Drug metabolism in monkey hepatic microsomes assessed as glucuronidation by LC-MS/MS method; type: ADME, Macaca mulatta, Liver, Microsome; conditions: rhesus monkey
[27] = Drug metabolism in pig hepatic microsomes assessed as glucuronidation by LC-MS/MS method; type: ADME, Sus scrofa, Liver, Microsome
[28] = Drug metabolism in mini pig hepatic microsomes assessed as glucuronidation by LC-MS/MS method; type: ADME, Sus scrofa, Liver, Microsome
Cytochrome P450 2C9 = Cytochrome P450 2C9 (Homo sapiens, UniProt P11712); assay: Inhibition of CYP2C9 in pooled human hepatic microsomes using diclofenac substrate in presence of NADPH; type: ADME, Liver
Salmonella typhimurium = assay: Genotoxicity in Salmonella typhimurium at 300 ug/ml by AMES II test; type: toxicity, organism-based; conditions: salmonella enterica subsp. enterica serovar typhimurium
[29] = Toxicity in Xenopus laevis at 62.5 ug/ml by FETAX assay

Chain of Sodium/hydrogen exchanger 1 (P19634 whole entry): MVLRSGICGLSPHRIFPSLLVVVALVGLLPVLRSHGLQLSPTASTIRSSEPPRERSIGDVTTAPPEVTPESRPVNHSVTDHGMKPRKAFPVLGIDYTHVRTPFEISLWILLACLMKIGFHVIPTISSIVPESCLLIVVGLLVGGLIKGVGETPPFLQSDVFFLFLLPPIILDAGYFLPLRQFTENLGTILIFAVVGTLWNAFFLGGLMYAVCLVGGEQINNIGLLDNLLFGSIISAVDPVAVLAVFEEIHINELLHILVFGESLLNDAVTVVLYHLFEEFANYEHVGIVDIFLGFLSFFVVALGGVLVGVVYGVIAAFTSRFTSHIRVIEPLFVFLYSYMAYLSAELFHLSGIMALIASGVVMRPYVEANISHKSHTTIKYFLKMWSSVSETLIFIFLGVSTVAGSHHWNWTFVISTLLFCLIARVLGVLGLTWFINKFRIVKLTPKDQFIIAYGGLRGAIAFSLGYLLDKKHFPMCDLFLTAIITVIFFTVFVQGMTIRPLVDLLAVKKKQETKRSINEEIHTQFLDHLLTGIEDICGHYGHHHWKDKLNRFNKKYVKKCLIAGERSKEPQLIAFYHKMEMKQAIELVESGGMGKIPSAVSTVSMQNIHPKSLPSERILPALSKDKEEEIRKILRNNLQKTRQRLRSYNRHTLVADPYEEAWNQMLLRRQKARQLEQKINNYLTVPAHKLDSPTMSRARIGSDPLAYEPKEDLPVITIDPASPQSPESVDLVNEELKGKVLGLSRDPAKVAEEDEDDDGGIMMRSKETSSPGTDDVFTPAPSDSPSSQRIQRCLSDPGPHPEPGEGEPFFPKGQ
Chain of Sodium/hydrogen exchanger 3 (P26433 whole entry): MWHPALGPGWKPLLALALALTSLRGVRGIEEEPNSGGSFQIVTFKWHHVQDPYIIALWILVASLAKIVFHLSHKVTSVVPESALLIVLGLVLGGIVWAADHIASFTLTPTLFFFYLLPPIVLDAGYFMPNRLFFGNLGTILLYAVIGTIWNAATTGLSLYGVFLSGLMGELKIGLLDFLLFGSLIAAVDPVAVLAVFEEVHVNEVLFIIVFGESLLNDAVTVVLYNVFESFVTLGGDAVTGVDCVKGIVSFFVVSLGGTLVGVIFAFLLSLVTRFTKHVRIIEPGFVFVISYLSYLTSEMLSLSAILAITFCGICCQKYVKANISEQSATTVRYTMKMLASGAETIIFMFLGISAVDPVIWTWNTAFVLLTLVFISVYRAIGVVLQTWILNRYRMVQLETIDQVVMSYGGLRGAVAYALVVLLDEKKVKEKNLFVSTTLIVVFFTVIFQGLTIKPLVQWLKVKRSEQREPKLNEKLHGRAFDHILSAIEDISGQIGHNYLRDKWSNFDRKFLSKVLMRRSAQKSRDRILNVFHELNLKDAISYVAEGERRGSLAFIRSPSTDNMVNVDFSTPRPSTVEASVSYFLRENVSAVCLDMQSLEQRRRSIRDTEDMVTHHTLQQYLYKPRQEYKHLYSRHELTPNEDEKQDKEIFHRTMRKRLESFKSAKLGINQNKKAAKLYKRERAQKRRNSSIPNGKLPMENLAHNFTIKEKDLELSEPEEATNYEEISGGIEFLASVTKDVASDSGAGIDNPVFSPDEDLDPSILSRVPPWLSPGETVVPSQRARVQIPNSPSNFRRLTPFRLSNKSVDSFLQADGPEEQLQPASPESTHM
Chain of Cytochrome P450 2C9 (P11712 whole entry): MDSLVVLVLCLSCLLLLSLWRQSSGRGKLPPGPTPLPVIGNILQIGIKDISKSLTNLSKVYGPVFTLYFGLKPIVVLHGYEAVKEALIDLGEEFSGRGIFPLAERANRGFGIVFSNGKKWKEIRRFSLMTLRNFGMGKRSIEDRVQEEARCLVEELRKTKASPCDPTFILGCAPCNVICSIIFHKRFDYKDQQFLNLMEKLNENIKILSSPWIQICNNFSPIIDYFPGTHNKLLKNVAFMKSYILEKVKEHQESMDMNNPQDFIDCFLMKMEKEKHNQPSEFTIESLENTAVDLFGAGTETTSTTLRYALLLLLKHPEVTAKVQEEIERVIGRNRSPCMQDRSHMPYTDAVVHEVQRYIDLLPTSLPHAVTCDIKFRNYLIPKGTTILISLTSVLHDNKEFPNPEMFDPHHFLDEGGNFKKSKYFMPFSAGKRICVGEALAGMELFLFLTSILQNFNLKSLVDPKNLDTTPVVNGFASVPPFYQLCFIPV

With `Cc1nnc(C)n1-c1ccc(O[C@H]2c3cc(Cl)cc(Cl)c3C[C@@H]2N2CC[C@@H](O)C2)c(F)c1.Cl` the IC50 [1] was 6.1 nM, the IC50 [2] was 7.8 nM and the IC50 [3] was 10.2 nM. For the same molecule, the IC50 [4] was over 100000 nM, the IC50 [5] was over 100000 nM and the IC50 [6] was 291 nM. It also gave an IC50 [7] of 12000 nM, an IC50 [8] of 6600 nM and a metabolised [9] of 25%. For the same molecule, the metabolised [10] was 25%, the metabolised [11] was 25% and the metabolised [12] was 25%. The metabolised [13] was 25%, the metabolised [14] was 25% and the metabolised [15] was over 60%. For the same molecule, the metabolised [16] was over 60%, the metabolised [17] was 5% and the CLH [18] was 0.12 mL/h. The Drug metabolism [19] was “Metabolite_Notdetected”, the Drug metabolism [20] was “Metabolite_Notdetected” and the Drug metabolism [21] was “Metabolite_Notdetected”. For the same molecule, the Drug metabolism [22] was “Metabolite_Notdetected”, the Drug metabolism [23] was “Metabolite_Notdetected” and the Drug metabolism [24] was “Metabolite_Notdetected”. The Drug metabolism [25] was “Metabolite_Notdetected”, the Drug metabolism [26] was “Metabolite_Detected” and the Drug metabolism [27] was “Metabolite_Detected”. For the same molecule, the Drug metabolism [28] was “Metabolite_Detected”, the IC50 (Cytochrome P450 2C9) was 900 nM and the Activity (Salmonella typhimurium) was “Non-Toxic”. For the same molecule, the Activity [29] was “Non-Toxic”.
